Measured values taken from patent US10072026B2, “Crystalline form of 3-((1R,3s,5S)-3-((7-((5-methyl-1H-pyrazol-3-yl)amino)-1,6-naphthyridin-5-yl)amino)-8-azabicyclo[3.2.1]octan-8-yl)propanenitrile” (priority 2015, dated 2018).
Where two headings read alike, the source gives them in different places.

Legend:
JAK1 = JAK1 (Homo sapiens (Human), UniProt P23458); assay: LanthaScreen JAK biochemical assay (JAK1)
[1] = test system: IL-4 induced STAT6 phosphorylation in THP-1 human monocytic cells; assay: Cellular JAK potency assay, THP-1
JAK2 = JAK2 (Homo sapiens (Human), UniProt O60674); assay: LanthaScreen JAK biochemical assay (JAK2)
JAK2, sequence (O60674 whole entry): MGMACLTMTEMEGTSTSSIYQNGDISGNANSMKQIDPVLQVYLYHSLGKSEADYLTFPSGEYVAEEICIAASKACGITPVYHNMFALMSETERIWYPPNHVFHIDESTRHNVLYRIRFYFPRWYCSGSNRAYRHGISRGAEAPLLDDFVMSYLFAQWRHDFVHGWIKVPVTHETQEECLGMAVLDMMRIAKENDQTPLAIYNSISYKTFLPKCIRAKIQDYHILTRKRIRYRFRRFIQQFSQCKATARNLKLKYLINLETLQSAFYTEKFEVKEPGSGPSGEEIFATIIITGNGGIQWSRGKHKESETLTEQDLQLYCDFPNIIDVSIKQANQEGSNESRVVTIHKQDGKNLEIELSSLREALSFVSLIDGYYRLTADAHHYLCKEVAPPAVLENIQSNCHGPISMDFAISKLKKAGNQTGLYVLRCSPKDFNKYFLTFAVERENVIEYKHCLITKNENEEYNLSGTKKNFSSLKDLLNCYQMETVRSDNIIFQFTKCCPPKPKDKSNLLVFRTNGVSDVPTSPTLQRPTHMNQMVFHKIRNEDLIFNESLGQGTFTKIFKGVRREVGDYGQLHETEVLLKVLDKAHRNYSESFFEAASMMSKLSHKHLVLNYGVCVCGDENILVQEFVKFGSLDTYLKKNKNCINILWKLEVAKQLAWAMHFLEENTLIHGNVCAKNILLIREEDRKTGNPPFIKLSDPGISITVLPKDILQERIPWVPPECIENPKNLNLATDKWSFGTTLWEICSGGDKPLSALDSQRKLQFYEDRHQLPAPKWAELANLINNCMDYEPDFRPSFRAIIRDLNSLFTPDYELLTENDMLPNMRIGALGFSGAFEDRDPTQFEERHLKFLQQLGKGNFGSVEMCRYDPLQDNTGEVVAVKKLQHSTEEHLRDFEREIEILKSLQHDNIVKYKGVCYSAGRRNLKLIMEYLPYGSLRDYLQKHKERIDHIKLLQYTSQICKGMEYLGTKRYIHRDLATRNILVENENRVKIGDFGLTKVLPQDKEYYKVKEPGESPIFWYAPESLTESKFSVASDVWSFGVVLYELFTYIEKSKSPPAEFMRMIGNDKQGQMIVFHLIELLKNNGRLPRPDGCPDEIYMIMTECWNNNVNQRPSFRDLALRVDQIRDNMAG

[2] = read-out: JAK 1 (pKi) (converted)
[3] = Homo sapiens, THP-1, read-out: THP-1 IL4 pIC50 (converted)
[4] = IL-4 induced STAT6 phosphorylation, THP-1 cells
[5] = THP-1 cells, IL-4 induced STAT6 phosphorylation

JAK1, sequence (P23458 whole entry): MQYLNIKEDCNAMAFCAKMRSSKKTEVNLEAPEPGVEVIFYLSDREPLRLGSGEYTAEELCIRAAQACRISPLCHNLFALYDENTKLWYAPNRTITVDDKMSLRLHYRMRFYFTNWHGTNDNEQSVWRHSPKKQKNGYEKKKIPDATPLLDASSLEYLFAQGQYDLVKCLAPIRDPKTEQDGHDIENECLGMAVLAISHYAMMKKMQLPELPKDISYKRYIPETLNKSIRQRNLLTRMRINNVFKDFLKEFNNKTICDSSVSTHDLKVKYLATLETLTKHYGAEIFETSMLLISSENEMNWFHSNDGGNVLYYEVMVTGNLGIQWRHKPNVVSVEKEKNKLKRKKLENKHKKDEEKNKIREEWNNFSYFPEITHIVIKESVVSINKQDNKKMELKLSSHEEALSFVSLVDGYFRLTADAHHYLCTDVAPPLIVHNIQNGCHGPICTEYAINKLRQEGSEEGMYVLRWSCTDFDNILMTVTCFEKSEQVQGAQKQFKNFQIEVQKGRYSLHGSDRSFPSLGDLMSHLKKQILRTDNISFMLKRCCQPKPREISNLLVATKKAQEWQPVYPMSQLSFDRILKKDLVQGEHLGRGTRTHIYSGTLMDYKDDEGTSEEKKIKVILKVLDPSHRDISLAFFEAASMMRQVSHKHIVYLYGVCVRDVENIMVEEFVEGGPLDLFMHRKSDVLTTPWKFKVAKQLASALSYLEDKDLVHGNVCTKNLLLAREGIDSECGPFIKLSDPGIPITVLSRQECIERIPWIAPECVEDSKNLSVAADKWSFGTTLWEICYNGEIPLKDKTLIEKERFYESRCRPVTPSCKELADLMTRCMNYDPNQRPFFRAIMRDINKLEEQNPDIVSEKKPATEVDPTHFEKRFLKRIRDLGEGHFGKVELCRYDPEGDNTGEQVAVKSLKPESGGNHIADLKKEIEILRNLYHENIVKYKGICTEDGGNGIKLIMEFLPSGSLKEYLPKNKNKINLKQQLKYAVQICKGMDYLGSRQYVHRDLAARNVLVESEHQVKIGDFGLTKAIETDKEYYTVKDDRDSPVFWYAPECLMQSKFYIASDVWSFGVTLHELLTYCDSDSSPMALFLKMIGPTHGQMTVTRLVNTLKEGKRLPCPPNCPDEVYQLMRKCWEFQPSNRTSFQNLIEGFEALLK

| Compound | IC50 [1, 3] | JAK 1 (pKi) (JAK1) | THP-1 IL4 pIC50 [1, 4] | also measured |
| --- | --- | --- | --- | --- |
| COC(=O)c1cnc2cc(Nc3cc(C)[nH]n3)nc(N[C@@H]3C[C@H]4CC[C@@H](C3)N4C3CCCOC3=O)c2c1 (stereo partly drawn) [Example 16, Methyl 7-((5-methyl-1H-pyrazol-3-yl)amino)-5-(((1R,3s,5S)-8-(2-oxotetrahydro-2H-pyran-3-yl)-8-azabicyclo[3.2.1]octan-3-yl)amino)-1,6-naphthyridine-3-carboxylate] | 31.6 to 200 nM |  |  | Ki (JAK1; [2]): 0.1 to 1 nM |
| Cc1cc(Nc2cc3ncccc3c(N[C@@H]3C[C@H]4CC[C@@H](C3)N4S(=O)(=O)C3CN(CCC#N)C3)n2)n[nH]1 [Example 4-11] | > 200 nM |  |  | Ki (JAK1; [2]): 0.1 to 1 nM |
| Cc1cc(Nc2cc3ncccc3c(N[C@@H]3C[C@H]4CC[C@@H](C3)N4C(=O)OCC(C)C)n2)n[nH]1 [Example 3-3] |  | B (B represents a pKi value between 9 and 10 (Ki between 1 nM and 0.1 nM)) | A (A represents a pEC50 value≥7.5 (EC50≤32 nM)) |  |
| COC(=O)CN1[C@@H]2CCC[C@H]1C[C@H](Nc1nc(Nc3cc(C)[nH]n3)cc3ncccc13)C2 [Example 1-32] |  |  | C (C represents a pEC50 value<6.7 (EC50>200 nM)) | JAK 2 (pKi) (JAK2): A (A represents a pKi value≥10 (Ki≤0.1 nM)) |
| Cc1cc(Nc2cc3nc(CN4CCOCC4)ccc3c(N[C@@H]3C[C@H]4CC[C@@H](C3)N4CC(C)C)n2)n[nH]1 [Example 5-19] |  | B (B represents a pKi value between 9 and 10 (Ki between 1 nM and 0.1 nM)) | B (B represents a pEC50 value between 6.7 and 7.5 (EC50 between 200 nM and 32 nM)) |  |
| COCCOC(=O)N1[C@@H]2CC[C@H]1C[C@H](Nc1nc(Nc3cc(C)[nH]n3)cc3ncccc13)C2 [Example 3-5] |  | B (B represents a pKi value between 9 and 10 (Ki between 1 nM and 0.1 nM)) | B (B represents a pEC50 value between 6.7 and 7.5 (EC50 between 200 nM and 32 nM)) |  |
| Cc1cc(Nc2cc3ncccc3c(N[C@@H]3C[C@H]4CC[C@@H](C3)N4S(=O)(=O)C3(C)CC3)n2)n[nH]1 [Example 4-8] | < 31.6 nM |  |  | Ki (JAK1; [2]): […] |
| COCC1CCCN1S(=O)(=O)N1[C@@H]2CC[C@H]1C[C@H](Nc1nc(Nc3cc(C)[nH]n3)cc3ncccc13)C2 (stereo partly drawn) [Example 4-12] | 31.6 to 200 nM |  |  | Ki (JAK1): 0.1 to 1 nM |
| COc1ccnc2cc(Nc3cc(C)[nH]n3)nc(N[C@@H]3C[C@H]4CC[C@@H](C3)N4C(=O)OCC(C)C)c12 [Example 7-1] |  | B (B represents a pKi value between 9 and 10 (Ki between 1 nM and 0.1 nM)) |  | THP-1 IL4 pIC50 [1, 5]: B (B represents a pEC50 value between 6.7 and 7.5 (EC50 between 200 nM and 32 nM)) |
| COC(=O)c1cnc2cc(Nc3cc(C)[nH]n3)nc(N[C@@H]3C[C@H]4CC[C@@H](C3)N4C(=O)CN(C)C)c2c1 [Example 6-39] |  | B (B represents a pKi value between 9 and 10 (Ki between 1 nM and 0.1 nM)) |  | THP-1 IL4 pIC50 [1, 5]: C (C represents a pEC50 value<6.7 (EC50>200 nM)) |
| CCOCC(=O)N1[C@@H]2CC[C@H]1C[C@H](Nc1nc(Nc3cc(C)[nH]n3)cc3ncccc13)C2 [Example 2-4] |  |  | C (C represents a pEC50 value<6.7 (EC50>200 nM)) |  |
| Cc1cc(Nc2cc3ncccc3c(N[C@@H]3C[C@H]4CCC[C@@H](C3)N4CC(F)(F)F)n2)n[nH]1 [Example 1-45] |  |  | B (B represents a pEC50 value between 6.7 and 7.5 (EC50 between 200 nM and 32 nM)) |  |
| Cc1cc(Nc2cc3ncccc3c(N[C@@H]3C[C@H]4CC[C@@H](C3)N4S(=O)(=O)c3ccccn3)n2)n[nH]1 [Example 4-14] | 31.6 to 200 nM |  |  |  |
| Cc1cc(Nc2cc3ncccc3c(N[C@@H]3C[C@H]4CC[C@@H](C3)N4CCCF)n2)n[nH]1 [Example 1-9] |  | B (B represents a pKi value between 9 and 10 (Ki between 1 nM and 0.1 nM)) | C (C represents a pEC50 value<6.7 (EC50>200 nM)) |  |
| COC(=O)C1(C(=O)N2[C@@H]3CC[C@H]2C[C@H](Nc2nc(Nc4cc(C)[nH]n4)cc4ncccc24)C3)CC1 [Example 2-9] | > 200 nM |  |  |  |
| COCCCN1[C@@H]2CCC[C@H]1C[C@H](Nc1nc(Nc3cc(C)[nH]n3)cc3ncccc13)C2 [Example 1-46] |  | B (B represents a pKi value between 9 and 10 (Ki between 1 nM and 0.1 nM)) | B (B represents a pEC50 value between 6.7 and 7.5 (EC50 between 200 nM and 32 nM)) |  |
| Cc1cc(Nc2cc3ncccc3c(N[C@@H]3C[C@H]4CC[C@@H](C3)N4CC(C)C)n2)n[nH]1 [Example 1-13] |  | B (B represents a pKi value between 9 and 10 (Ki between 1 nM and 0.1 nM)) | A (A represents a pEC50 value≥7.5 (EC50≤32 nM)) |  |
| C=CCS(=O)(=O)N1[C@@H]2CCC[C@H]1C[C@H](Nc1nc(Nc3cc(C)[nH]n3)cc3ncccc13)C2 [Example 4-22] |  |  | A (A represents a pEC50 value≥7.5 (EC50≤32 nM)) |  |
| COc1ccc2c(N[C@@H]3C[C@H]4CC[C@@H](C3)N4CCCF)nc(Nc3cc(C)[nH]n3)cc2n1 [Example 5-5] |  | B (B represents a pKi value between 9 and 10 (Ki between 1 nM and 0.1 nM)) | B (B represents a pEC50 value between 6.7 and 7.5 (EC50 between 200 nM and 32 nM)) |  |
| Cc1cc(Nc2cc3nc(CN4CCN(C)CC4)ccc3c(N[C@@H]3C[C@H]4CC[C@@H](C3)N4CC(F)(F)F)n2)n[nH]1 [Example 5-35] | < 31.6 nM |  |  |  |
| COc1cnc2cc(Nc3cc(C)[nH]n3)nc(N[C@@H]3C[C@H]4CCC[C@@H](C3)N4CCCF)c2c1 [Example 6-26] |  | B (B represents a pKi value between 9 and 10 (Ki between 1 nM and 0.1 nM)) |  | THP-1 IL4 pIC50 [1, 5]: B (B represents a pEC50 value between 6.7 and 7.5 (EC50 between 200 nM and 32 nM)) |
| Cc1cc(Nc2cc3ncccc3c(N[C@@H]3C[C@H]4CCC[C@@H](C3)N4S(C)(=O)=O)n2)n[nH]1 [Example 4-16] |  |  | A (A represents a pEC50 value≥7.5 (EC50≤32 nM)) |  |
| Cc1cc(Nc2cc3ncccc3c(N[C@@H]3C[C@H]4CC[C@@H](C3)N4CC3CCC(=O)O3)n2)n[nH]1 (stereo partly drawn) [Example 1-29] |  |  | C (C represents a pEC50 value<6.7 (EC50>200 nM)) |  |
| Cc1cc(Nc2cc3nc(CN4CCC(F)(F)CC4)ccc3c(N[C@@H]3C[C@H]4CC[C@@H](C3)N4CC(F)(F)F)n2)n[nH]1 [Example 5-33] | 31.6 to 200 nM |  |  |  |
| Cc1cc(Nc2cc3ncccc3c(N[C@@H]3C[C@H]4CC[C@@H](C3)N4Cc3ccc(O)cc3)n2)n[nH]1 [Example 1-18] | > 200 nM |  |  | Ki (JAK1; [2]): 0.1 to 1 nM |
| Cc1cc(Nc2cc3ncccc3c(N[C@@H]3C[C@H]4CC[C@@H](C3)N4Cc3cccc(O)c3)n2)n[nH]1 [Example 1-19] | 31.6 to 200 nM |  |  |  |
| Cc1cc(Nc2nc(N[C@@H]3C[C@H]4CCC[C@@H](C3)N4C(=O)CN(C)C)c3cccnc3c2F)n[nH]1 [Example 8-15] |  | B (B represents a pKi value between 9 and 10 (Ki between 1 nM and 0.1 nM)) |  | THP-1 IL4 pIC50 [1, 5]: C (C represents a pEC50 value<6.7 (EC50>200 nM)) |
| COC(=O)CCCN1[C@@H]2CCC[C@H]1C[C@H](Nc1nc(Nc3cc(C)[nH]n3)cc3ncccc13)C2 [Example 1-34] |  | B (B represents a pKi value between 9 and 10 (Ki between 1 nM and 0.1 nM)) | C (C represents a pEC50 value<6.7 (EC50>200 nM)) |  |
| Cc1cc(Nc2cc3nc(CN4CCOCC4)ccc3c(N[C@@H]3C[C@H]4CC[C@@H](C3)N4S(C)(=O)=O)n2)n[nH]1 [Example 5-15] | 31.6 to 200 nM |  |  |  |
| Cc1cc(Nc2cc3ncccc3c(N[C@@H]3C[C@H]4CCC[C@@H](C3)N4CC(=O)OC(C)C)n2)n[nH]1 [Example 1-35] |  |  | A (A represents a pEC50 value≥7.5 (EC50≤32 nM)) |  |
